Results reported in patent publication US11656221B2, “Methods to identify modulators of actin-binding proteins” (Regents of the University of Minnesota, priority 2019, dated 2023).
“Also recorded” adds a separate entry of the source. Read-outs that look alike come from different tables or passages of the source.

Key:
[1] = target: T1, ternary complex consisting of GFP-ABD-L253P, Lifeact-mCherry, and actin (Homo sapiens, UniProt O15020, L253P); test: Primary live-cell time-resolved FRET assay (GFP-ABD-L253P plus Lifeact-mCherry); type: cell-based; details: LOPAC compounds 10 μM, 120 min
T1 construct: L252P β-III-spectrin (human) ABD residues 1-284; expressed in transfected cells; host or cells: HEK293-6E, pTT5 vector, transient
T1 sequence (O15020 1-284 L253P, one chain of several): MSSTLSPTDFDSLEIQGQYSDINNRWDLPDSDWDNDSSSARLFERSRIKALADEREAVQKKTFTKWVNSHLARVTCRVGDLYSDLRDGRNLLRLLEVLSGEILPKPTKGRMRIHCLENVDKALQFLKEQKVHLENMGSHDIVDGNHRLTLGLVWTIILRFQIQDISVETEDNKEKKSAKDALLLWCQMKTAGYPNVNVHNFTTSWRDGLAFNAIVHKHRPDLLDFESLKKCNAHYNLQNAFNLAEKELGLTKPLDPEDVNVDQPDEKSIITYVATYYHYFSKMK

[2] = target: T2, Lifeact-mCherry binding to F-actin (Oryctolagus cuniculus, UniProt P68135); test: F-actin and Lifeact-mCherry co-sedimentation assay; set-up: species or system New Zealand white rabbit (Oryctolagus cuniculus); details: 10 μM
T2 construct: Actin was purified from acetone powder derived from the psoas muscle; made in house; host or cells: actin from rabbit psoas muscle; Lifeact-mCherry from E. coli, pE-SUMOpro
Protocol: Actin was purified from acetone powder derived from the psoas muscle of New Zealand white rabbit (Oryctolagus cuniculus). Filamentous (F)-actin was stored for up to 3 days on ice before use in binding assays. Within an hour of the binding assay, the F-actin was clarified at 100,000×g at 4° C. for 10 min prior to setting up binding assays. The L253P β-III-spectrin ABD was expressed in E. coli BL21(DE3) (Novagen). The ABD was purified and the His-SUMO tag proteolytically removed, as previously described, except size-exclusion chromatography was not performed due to the high purity of the ABD protein. Lifeact-mCherry protein was similarly prepared. A Bradford assay was performed to determine clarified F-actin and ABD protein concentrations.
F-actin and ABD binding assays were performed as previously described. In brief, binding assays used 1 μM ABD protein, 1 μM F-actin and 1-50 μM compound (as indicated) or DMSO control for a total reaction volume of 60 μL in F-buffer containing 10 mM Tris, pH 7.5, 150 mM NaCl, 0.5 mM ATP, 2 mM MgCl2, and 1 mM DTT. Following 30 min incubation at room temperature (21° C.). F-actin was pelleted using centrifugation at 100,000×g at 25° C. for 30 min. Unbound ABD in the supernatant was measured following SDS-PAGE and Coomassie blue staining in accord. In addition, control co-sedimentations assays that lacked actin were performed to test if compounds cause ABD aggregation. F-actin and Lifeact-mCherry binding assays were undertaken with 2 μM Lifeact-mCherry, 30 μM F-actin and 1-50 μM compound (as indicated) or DMSO control for a total reaction volume of 80 μL in F-buffer. For a no-actin binding control, an assay sample with no F-actin was also set up. Binding reactions were allowed to reach equilibrium at room temperature (21° C.) for 30 min and then F-actin was pelleted by centrifugation at 100,000×g at 25° C. for 30 min. The amount of unbound Lifeact-mCherry was sampled by loading 7 μL of spin supernatant on a low volume black bottom 384-well plate (Greiner). Amount of mCherry was determined by acquiring fluorescence spectrum peak intensity at ˜600 nm using a spectral unmixing plate reader (Fluorescence Innovations, Inc) equipped with a 532 nm laser (Laserglow Technologies, Ontario, Canada) for excitation, 532 nm longpass filter for emission, and PMT for emission detection. The fraction of Lifeact-mCherry bound to F-actin was determined by subtracting from one the fraction of supernatant fluorescence intensity relative to the no-actin control sample, using the following equation:
[formula] • Where Fcontrol/DMSO is the peak mCherry fluorescence of assay samples containing compound or DMSO control, and Fno-actin is the peak mCherry fluorescence of assay samples that contained no F-actin. 2.9 Trypan Blue Cell Viability Assays

[3] = test system: HEK293-6E cells; test: Trypan blue cell viability assay; type: cell-based; details: 10 μM, 3 hr incubation
Protocol: HEK293-6E cell viability was measured using trypan blue (0.03%) staining and a Countess Automated Cell counter (Invitrogen). Non-transfected HEK293-6E cells were spun at 100×g for 5 min at 21° C., and resuspended in 10 mL of PBS. The centrifugation and resuspension were repeated twice more. Final cell concentration was 1×10^6 cells/mL. Cells were incubated with 2% DMSO, or 3-50 μM compound (as indicated) for 3 hrs at room temperature (21° C.). After addition of 100 μL of 0.06% trypan blue solution in PBS, 10 μL was loaded on a slide and injected into the cell counter, and cell viability was measured.

[4] = test system: mammalian cells; details: cited from earlier work
[5] = target: T3, GFP-ABD-L253P and Lifeact-mCherry on actin filaments (Homo sapiens, UniProt O15020, L253P); test: Live-cell FRET assay after actin depolymerization (Example 2); type: cell-based; details: 60 min treatment
T3 construct: expressed in transfected cells; host or cells: HEK293.2sus (ATCC CRL-1573.3), pcDNA3.1(+), transient
T3 sequence (O15020 1-284 L253P): as the sequence (O15020 1-284 L253P, one chain of several) above
Source text: Expression constructs. FRET donor and acceptor constructs were generated using the plasmid expression vector, pcDNA3.1(+) (Invitrogen). The coding sequence for Lifeact-mCherry was PCR amplified from mCherry-Lifeact-7 (Addgene, plasmid #54491) using the oligonucleotides, […] and […], and ligated into pcDNA3.1(+) using the restriction enzymes Kpn1 and Xba1, resulting in the construct pcDNA3.1-Lifeact-mCherry. To generate GFP-ABD expression constructs, a mEGFP DNA construct with flanking Kpn1 and EcoR1 restriction sites, was synthesized (Integrated DNA Technologies). The mEGFP sequence was subcloned into pcDNA3.1(+) using Kpn1 and EcoR1 restriction enzymes, resulting the in the construct, pcDNA3.1-GFP. DNA sequences encoding the wild-type or L253P human β-III-spectrin ABD (amino acids 1-284, NCBI reference sequence NP_008877.1) were PCR amplified from pE-SUMO-ABD-WT or -L253P (Avery, 2017 PMID: 29116080) using the oligonucleotides […] and […], and inserted into pcDNA3.1-GFP using EcoR1 and Xba1 restriction enzymes. The resulting constructs, pcDNA3.1-GFP-ABD-WT and -L253P, along with pcDNA3.1-Lifeact-mCherry, were sequence verified. […]
FRET Measurement. FRET in live cells was measured using a Fluorescence Lifetime (FLT) Plate Reader (FLTPR) (Fluorescence Innovations). […]

[6] = target: actin filaments; details: cited from earlier work

With `Clc1ccc(C(c2ccc(Cl)cc2)n2cc[n+](CC(OCc3ccc(Cl)cc3Cl)c3ccc(Cl)cc3Cl)c2)cc1` (centres unmarked) [calmidazolium] the “effect on FRET in primary screen (Hit, 4SD threshold)” value [1] was “decrease FRET”, the “effect on Lifeact-mCherry binding with actin” value [2] was “decreased actin-Lifeact co-sedimentation; also recorded: reduce Lifeact-mCherry binding with actin” and the “effect on HEK293-6E cell viability” value [3] was “dramatically reduced cell viability; also recorded: reduces HEK293-6E cell viability”. For the same compound, the “reported effect on cell viability” value [4] was “reported to reduce cell viability”.
With `C/C1=C/C(=O)O[C@@H]2C[C@@H](CC[C@H](C)/C=C\C=C\CC1)O[C@@](O)([C@@H]1CSC(=O)N1)C2` [latrunculin A] the “effect on FRET between GFP-ABD-L253P and Lifeact-mCherry” value [5] was “significantly reduce FRET; also recorded: decrease in FRET”.
With `C/C1=C/C(=O)O[C@@H]2C[C@@H](CC[C@H](C)/C=C\CC1)O[C@@](O)([C@@H]1CSC(=O)N1)C2` [latrunculin B] the “effect on FRET between GFP-ABD-L253P and Lifeact-mCherry” value [5] was “significantly reduce FRET; also recorded: decrease in FRET”.
For “K255E α-actinin-4: α-actinin-4 carrying the disease mutation K255E”, the Kd ([6]; mutant ABD proteins) is listed as 0.046 µM.
For “wild-type: wild-type dystrophin, comparator for L212P”, the Kd ([6]; wild-type dystrophin, Singh et al.) is listed as about 45 µM.
